In ChEMBL document CHEMBL3352106, “Phosphocalyculin C as a pyrophosphate protoxin of calyculin C in the marine sponge Discodermia calyx” (Bioorg Med Chem Lett, 2014) one finds IC50 data, which are given here for two compounds.

The experiment deals with P388. As to the kind of experiment: Cytotoxicity against mouse P388 cells assessed as reduction in cell viability. It is filed as functional, cell-based.

Regarding `COC[C@@H]([C@H](O)[C@H](O)C(=O)N[C@H](C)C[C@H](C)c1nc(/C=C/C[C@@H]2O[C@]3(C[C@@H](O)[C@@H]2C)O[C@H]([C@H](C[C@H](O)[C@H](C)[C@H](O)[C@H](C)/C=C(C)/C(C)=C/C=C/C(C)=C\C#N)OC)[C@H](OP(=O)(O)O)C3(C)C)co1)N(C)C` [CALYCULIN], the IC50 was found to be 0.007 nM.
For `COC[C@@H]([C@H](O)[C@H](O)C(=O)N[C@H](C)C[C@H](C)c1nc(/C=C/C[C@@H]2O[C@]3(C[C@@H](O)[C@@H]2C)O[C@H]([C@H](C[C@H](O)[C@H](C)[C@H](O)[C@H](C)/C=C(C)/C(C)=C/C=C/C(C)=C\C#N)OC)[C@H](OP(=O)(O)OP(=O)(O)O)C3(C)C)co1)N(C)C`, the IC50 was determined as 36 nM.

In general, IC50 refers to the concentration at which inhibition is half-maximal.
